The source of these data is US7157430B2, “(Substituted)acyl dipeptidyl inhibitors of the ICE/CED-3 family of cysteine proteases” (Idun Pharmaceuticals, Inc., priority 1998, dated 2007).

Common to all, as to assay type: biochemical
One assay has as its target T1, MCH-3 (Homo sapiens, UniProt P55210).
T1 sequence (P55210 24-198 limits assumed): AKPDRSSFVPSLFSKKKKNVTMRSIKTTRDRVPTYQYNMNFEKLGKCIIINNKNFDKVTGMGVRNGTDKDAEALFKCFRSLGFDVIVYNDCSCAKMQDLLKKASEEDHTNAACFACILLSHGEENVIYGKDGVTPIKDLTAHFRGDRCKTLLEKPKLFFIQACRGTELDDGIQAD
T1 sequence (P55210 207-303 limits assumed): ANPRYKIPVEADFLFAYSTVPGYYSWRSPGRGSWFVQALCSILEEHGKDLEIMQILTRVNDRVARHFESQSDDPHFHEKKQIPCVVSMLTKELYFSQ
Put plainly: Fluorescence enzyme assay, IC50 determination, Mch3. Here is the method: (§1) Fluorescence enzyme assays detecting the activity of the compounds of Formula 1 utilizing the recombinant ICE and CPP32 enzymes are performed essentially according to Thornberry et al. (Nature, 356:768:774 (1992)) and Nicholson et al. (Nature, 376:37–43 (1995)) respectively, (herein incorporated by reference) in 96 well microtiter plates. The substrate is Acetyl-Tyr-Val-Ala-Asp-amino-4-methylcoumarin (AMC) for the ICE assay and Acetyl-Asp-Glu-Val-Asp-amino-4-methylcoumarin for the CPP32, Mch2, Mch3 and Mch5 assays. Enzyme reactions are run in ICE buffer (25 mM HEPES, 1 mM EDTA, 0.1% CHAPS, 10% sucrose, pH 7.5) containing 2 mM DTT at room temperature in duplicate.
(§2) The enzyme and the compound of Formula I to be assayed are allowed to preincubate in the microtitre plate wells for 30 minutes at room temperature prior to the addition of substrate to initiate the reaction. Fluorescent AMC product formation is monitored for one hour at room temperature by measuring the fluorescence emission at 460 nm using an excitation wavelength of 360 nm. The fluorescence change in duplicate (control) wells are averaged and the mean values are plotted as a function of inhibitor concentration to determine the inhibitor concentration producing 50% inhibition (IC50). The results of this assay are set forth below in Table 1 and in Table 3 (for Table 3, see Examples 11 through 52).
(§3) The reference compound for this assay was Cbz-ValAlaAsp-H and the values are denoted in Table 1 as “Reference”.

The target of a further assay is T2, CPP32 (Homo sapiens, UniProt P42574).
T2 sequence (P42574 29-175 limits assumed): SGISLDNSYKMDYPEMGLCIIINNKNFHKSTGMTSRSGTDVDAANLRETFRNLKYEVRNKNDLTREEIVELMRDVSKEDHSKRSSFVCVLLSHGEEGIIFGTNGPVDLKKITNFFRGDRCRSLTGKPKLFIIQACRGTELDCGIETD
T2 sequence (P42574 176-277 limits assumed): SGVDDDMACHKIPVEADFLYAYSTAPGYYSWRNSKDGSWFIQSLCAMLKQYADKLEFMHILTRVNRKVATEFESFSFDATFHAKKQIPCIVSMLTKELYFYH
Put plainly: Fluorescence enzyme assay, IC50 determination, CPP32. Here is the method: as §1, §2, §3

Another assay deals with MCH-5 (Homo sapiens, UniProt Q14790). Put plainly: Fluorescence enzyme assay, IC50 determination, Mch5. Here is the method: as §1, §2, §3
Sequence of MCH-5 (Q14790 217-374 limits assumed, species assumed): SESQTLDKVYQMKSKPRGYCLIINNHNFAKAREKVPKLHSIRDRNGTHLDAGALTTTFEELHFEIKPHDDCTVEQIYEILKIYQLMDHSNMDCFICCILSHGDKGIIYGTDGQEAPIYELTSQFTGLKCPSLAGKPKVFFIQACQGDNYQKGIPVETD
Sequence of MCH-5 (Q14790 385-479 limits assumed, species assumed): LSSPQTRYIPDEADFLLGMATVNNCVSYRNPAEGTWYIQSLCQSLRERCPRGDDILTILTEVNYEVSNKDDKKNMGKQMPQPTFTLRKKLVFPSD
A further assay concerns the target T3, MCH-2 (Homo sapiens, UniProt P55212).
T3 sequence (P55212 24-179 limits assumed): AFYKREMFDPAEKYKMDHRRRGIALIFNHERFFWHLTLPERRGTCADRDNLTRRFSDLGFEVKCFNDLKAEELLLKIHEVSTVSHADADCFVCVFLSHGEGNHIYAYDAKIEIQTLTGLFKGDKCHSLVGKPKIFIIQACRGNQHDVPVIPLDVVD
T3 sequence (P55212 194-293 limits assumed): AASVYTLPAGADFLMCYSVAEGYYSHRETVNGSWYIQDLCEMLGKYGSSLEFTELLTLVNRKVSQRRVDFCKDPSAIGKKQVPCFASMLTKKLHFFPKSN
Description: Fluorescence enzyme assay, IC50 determination, Mch2. Here is the method: as §1, §2, §3

The next assay has as its target T4, mICE (Mus musculus, UniProt P29452).
T4 sequence (P29452 123-296 limits assumed): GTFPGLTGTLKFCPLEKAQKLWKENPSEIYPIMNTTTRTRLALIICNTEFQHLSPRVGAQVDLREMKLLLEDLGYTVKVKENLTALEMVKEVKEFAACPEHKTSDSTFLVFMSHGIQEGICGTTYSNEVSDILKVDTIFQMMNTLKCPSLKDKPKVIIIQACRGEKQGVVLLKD
T4 sequence (P29452 315-402 limits assumed): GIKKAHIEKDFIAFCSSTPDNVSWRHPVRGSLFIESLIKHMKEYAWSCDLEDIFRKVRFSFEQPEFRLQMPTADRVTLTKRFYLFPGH
Description: Fluorescence enzyme assay, IC50 determination, ICE. Here is the method: as §1, §2, §3

The mark [1] stands for this setting: Ac-DEVD-AMC substrate, 30 min preincubation, room temperature, read-out: MCH-3 IC50.
Where [2] appears, read: recombinant enzyme, Ac-DEVD-AMC substrate, 30 min preincubation, room temperature, read-out: CPP32 IC50.
The mark [3] stands for this setting: Ac-DEVD-AMC substrate, 30 min preincubation, room temperature, read-out: MCH-5 IC50.
Setting [4] is: Ac-DEVD-AMC substrate, 30 min preincubation, room temperature, read-out: MCH-2 IC50.
The mark [5] stands for this setting: recombinant enzyme, Ac-YVAD-AMC substrate, 30 min preincubation, room temperature, read-out: mICE IC50.
Setting [6] is: Table 3, method of Preparation 3A, read-out: MCH3 I50.
Setting [7] is: Table 3, method of Preparation 3A, read-out: CPP32 I50.
Setting [8] is: Table 3, method of Preparation 3A, read-out: MCH5 I50.
The mark [9] stands for this setting: Table 3, method of Preparation 3A, read-out: MCH2 I50.
Where [10] appears, read: Table 3, method of Preparation 3A, read-out: mICE I50.

Structures are written as SMILES. Where two headings read alike, the source gives them in different places.

Take `CC(C)[C@H](NC(=O)COc1cccc2ccccc12)C(=O)N[C@H](C=O)CC(=O)O` [Example 2, (3S)-3-[N-((1-Naphthyloxy)Acetyl)Valinyl]Amino-4-Oxobutanoic Acid]: the IC50 on MCH-3 (setting [1]) was 2100 nM; at CPP32 (setting [2]), 355 nM; at MCH-5 (setting [3]), 1200 nM; on MCH-2 (setting [4]), above 10000 nM; on mICE (setting [5]) it was 336 nM.
On the same counts, the results for `CC(C)[C@H](NC(=O)COc1ccc2ccccc2c1C(=O)O)C(=O)N[C@H](C=O)CC(=O)O` [Example 5, (3S)-3-[N-((1′-Carboxy-2′-Naphthyloxy)Acetyl)Valinyl]Amino-4-Oxobutanoic Acid] are 10900 nM, 401 nM, 733 nM, 3610 nM and 2960 nM.
As for `CC(C)[C@H](NC(=O)COc1c(C(=O)O)ccc2ccccc12)C(=O)N[C@H](C=O)CC(=O)O` [Example 6, (3S)-3-[N-((2′-Carboxy-1′-Naphthyloxy)Acetyl)Valinyl]Amino-4-Oxobutanoic Acid], the IC50 stood at 1650 nM on MCH-3 (setting [1]); 54 nM on CPP32 (setting [2]); 48 nM at MCH-5 (setting [3]); 1430 nM on MCH-2 (setting [4]); 385 nM on mICE (setting [5]).
On the same counts, the results for `CC(C)[C@H](NC(=O)COc1cc2ccccc2cc1C(=O)O)C(=O)N[C@H](C=O)CC(=O)O` [Example 7, (3S)-3-[N-((3′-Carboxy-2′-Naphthyloxy)Acetyl)Valinyl]Amino-4-Oxobutanoic Acid] are 17000 nM, 731 nM, 200 nM, 1900 nM and 1890 nM.
For the compound `CC(C)C[C@H](NC(=O)CNc1cccc2ccccc12)C(=O)N[C@H](C=O)CC(=O)O` [Example 8, (3S)-3-[N-((1-Naphthylamino)Acetyl)Leucinyl]Amino-4-Oxobutanoic Acid], the IC50 on MCH-3 (setting [1]) was 1320 nM; on CPP32 (setting [2]), 13 nM; on MCH-5 (setting [3]), 7.6 nM; at MCH-2 (setting [4]) it was 37 nM; at mICE (setting [5]) it was 33 nM.
With `CC(C)C[C@H](NC(=O)COc1cccc2c1OC(C)(C)C2)C(=O)N[C@H](C=O)CC(=O)O` [Example 10, (3S)-3-[N-((2,3-Dihydro-2,2-Dimethyl-Benzofuranyloxy)Acetyl)Leucinyl]Amino-4-Oxobutanoic Acid], the IC50 on MCH-3 (setting [1]) came out at 2320 nM; at CPP32 (setting [2]), 241 nM; on MCH-5 (setting [3]), 6340 nM; on MCH-2 (setting [4]) it was 13100 nM; on mICE (setting [5]) it was 6340 nM.
`CC(C)C[C@H](NC(=O)CCc1cccc2ccccc12)C(=O)N[C@H](C=O)CC(=O)O` [Example 11]: the IC50 on MCH-3 (setting [6]) was 8780 nM; on CPP32 (setting [7]) it was 1590 nM; at MCH-5 (setting [8]), 12200 nM; at MCH-2 (setting [9]), 4190 nM; on mICE (setting [10]), 1860 nM.
In the case of `CC(C)C[C@H](NC(=O)COc1cccc2ccccc12)C(=O)N[C@H](C=O)CC(=O)O` [Example 12], the IC50 on MCH-3 (setting [6]) is 1950 nM; on CPP32 (setting [7]), 139 nM; at MCH-5 (setting [8]), 821 nM; on MCH-2 (setting [9]), 846 nM; at mICE (setting [10]), 597 nM.
Take `CC(C)C[C@H](NC(=O)COc1ccc2ccccc2c1)C(=O)N[C@H](C=O)CC(=O)O` [Example 13]: the IC50 is 8870 nM on MCH-3 (setting [6]); 944 nM at CPP32 (setting [7]); above 10000 nM on MCH-5 (setting [8]); 18600 nM at MCH-2 (setting [9]); 2570 nM on mICE (setting [10]).
As for `CC(C)C[C@H](NC(=O)CSc1cccc2ccccc12)C(=O)N[C@H](C=O)CC(=O)O` [Example 16], the IC50 on MCH-3 (setting [6]) turned out to be 1740 nM; on CPP32 (setting [7]) it was 195 nM; at MCH-5 (setting [8]), 7420 nM; on MCH-2 (setting [9]), 1430 nM; on mICE (setting [10]) it was 2750 nM.
